From patent US7763615B2, “Ecteinascidin analogs for use as antitumour agents” (priority 2001, dated 2010)
≈ marks a conversion by molar mass, not a printed value. Like-named read-outs stand apart in the source and are kept apart here.

Legend:
[1] = physchem; settings: pH 7.4, log D n-Octanol-Dulbecco's PBS pH 7.4
Experimental: The measurement of partition coefficient was evaluated based on a miniaturized shake-flask procedure. Buffer (Dulbecco's PBS, pH 7.40) was used as the aqueous phase. The tested compound was dissolved in DMSO, at the concentration of 100 μM. The final DMSO concentration (1%.) during the octanol-buffer partitioning are very low to avoid bias on the partitioning. The amount of compound in the buffer phase was determined by HPLC with photodiode array detection after an equilibration phase of 60 min. The amount of compound in the octanol phase is calculated by subtraction of the amount of compound in buffer from the total amount of compound, which is determined from a calibration sample.
Log D is calculated as the Log10 of the amount of compound in the octanol phase divided by the amount of compound in the buffer phase. The effective range of the log D microassay is approximately −0.5 to +4.5.

[2] = molecular target: CYP2D6 (Homo sapiens, UniProt P10635); test: in vitro; settings: CYP2D6 (% inhibition)
Experimental: For CYP2D6 inhibition assay, the compound are tested at 10 μM in duplicate with a 0.25% final concentration of both methanol and acetonitrile in presence of the fluorescent substrate AMMC (3-[2-N,N-diethyl-N-methylammonium)ethyl]-7-methoxy-4-methylcoumarin) at the concentration of 1.5 μM). The conversion of the AMMC in AHMC (3-[2-N,N-diethyl-N-methylammonium)ethyl]-7-hydroxy-4-methylcoumarin) is determined spectrofluorimetry after incubation with the enzyme during 450 min at 37° C.
For both assays, the fluorescent intensity measured at t=0 is subtracted from that measured after the appropriate incubation time. The ratio of signal-to-noise is calculated by comparing the fluorescence in incubations containing the test compound to the control samples containing the same solvent vehicle. The percent of control activity is calculated and reported as percent inhibition.

[3] = tested on: FDC-P1, normal mouse myelogeous stem cells; settings: 24 h
Experimental: (§2) In order to assess the cytotoxicity of the drugs to normal cells, we used 96 well plates plated at a density of 5000 cells per well (except for the FDC-P1 which were plated at 12,000 cells per well) with normal cell lines (ATCC, Table 1) maintained as per the directions of the ATCC: AML-12, normal mouse liver cells; NRK-52E, normal rat kidney cells; L8, normal rat skeletal muscle cells; FDC-P1, normal mouse myelogeous stem cells; and H9c2 (2-1), normal rat cardiac muscle cells. The cells in each plate were permitted to settle overnight before adding the test drug.
(§3) To each well (100 μl medium) 10 μl of drug in media was added at varying concentrations (1×10-10-0.01 mg/ml final concentration) and further incubated overnight at 37° C. with 5% CO2. After 24 h the following assays were performed. All experiments were repeated at least 3 times and were assayed in duplicate.
(§4) MTS assay (CellTiter 96 aqueous) was performed according to the manufacturer's (Promega) directions (for all cell types). Cell viability (mitochondrial activity) is determined via enzymatic conversion of the formazan substrate.

[4] = molecular target: T1, CYP3A4 (Homo sapiens, UniProt P08684); test: in vitro; settings: CYP3A4 (% inhibition)
[5] = tested on: H9c2 (2-1), normal rat cardiac muscle cells; settings: 24 h
Experimental: as §2, §3, §4

[6] = s9, 60 min, 1 μM
[7] = tested on: L8, normal rat skeletal muscle cells; settings: 24 h
Experimental: as §2, §3, §4

[8] = tested on: (HEPG2); settings: human, 24 h, 30 μM
[9] = tested on: NRK-52E, normal rat kidney cells; settings: 24 h
[10] = tested on: A498; test: cells; format: cell-based; settings: Homo sapiens
Outline: (§1)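 Cells plated at 5×10^3 per well; 18 h later, test samples added across 10 to 10^−8 μg/ml; incubation continued 48 h at 37° C, 5% CO2. Cells then fixed with cold TCA, stained with SRB, dye solubilised in Tris, and optical density measured at 490 nm.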

[11] = tested on: MB231; test: cells; format: cell-based; settings: Homo sapiens
Outline: as §1

[12] = tested on: MEL-28; test: cells; format: cell-based
Outline: as §1

[13] = tested on: SW-620; test: cells; format: cell-based; settings: Homo sapiens
Outline: as §1

[14] = tested on: A549; test: cells; format: cell-based; settings: for GI50: read-out: GI50; for IC (TGI): read-out: TGI
Outline: as §1

[15] = tested on: MCF; test: cells; format: cell-based; settings: Homo sapiens
Outline: as §1

[16] = tested on: HT29; test: cells; format: cell-based
Outline: as §1

[17] = tested on: DU145; test: cells; format: cell-based
Outline: as §1

[18] = tested on: AML-12, normal mouse liver cells; settings: 24 h
[19] = in vitro; settings: human, Caco-2
Text: The intestinal epithelium permeability is a critical characteristic that determines the rate and extent of human absorption and ultimately the bioavailability of a drug candidate. Caco-2 permeability assay allows a rapid assessment of membrane permeability and thus helps to rank-order compounds in terms of their absorption potential.
The Caco-2 cell line is a human colon adenocarcinoma cell line that differentiates in culture and resembles the epithelial lining of the human small intestine.
The apparent permeability coefficients (Papp) was determined in the apical-to-basolateral (A-to-B) direction across the cell monolayers (TC-7 sub-clone of the Caco-2) cultured on polycarbonate membrane filters. Compounds were tested at 50 μM with at a final DMSO concentration of 1%. Samples were analyzed by HPLC-MS or HPLC-MS/MS.
The test compound was added to the apical side and the Papp was determined based on the rate of appearance of the test compound in the basolateral side after 2 h-incubation. Two reference compounds, propranolol (highly permeable) and ranitidine (poorly permeable), are tested in each assay as controls.

[20] = physchem; settings: pH 7.4, aqueous buffer, Solubility Dulbecco's PBS pH 7.4
[21] = tested on: SK-OV3; test: Inhibition of cells growth by colorimetric assay (SRB), SK-OV3; format: cell-based
Outline: as §1

[22] = molecular target: T1, CYP3A4; settings: 30 min, 10 µM
[23] = tested on: K562; test: cells; format: cell-based; settings: for CC50: read-out: LC50
Outline: as §1

[24] = tested on: SK-BR3; test: cells; format: cell-based; settings: for CC50: read-out: LC50
Outline: as §1

[25] = tested on: IGROV; test: cells; format: cell-based
Outline: as §1

[26] = tested on: PANC-1; test: cells; format: cell-based; settings: for CC50: read-out: LC50
Outline: as §1

[27] = tested on: IGROV-ET; test: cells; format: cell-based; settings: IGROV-ET; for CC50: read-out: LC50
Outline: as §1

[28] = tested on: LOVO-DOX; test: cells; format: cell-based; settings: for GI50 / TGI: LOVO-DOX
Outline: as §1

[29] = tested on: LOVO; test: cells; format: cell-based; settings: for CC50: read-out: LC50
Outline: as §1

[30] = tested on: LNCAP; test: cells; format: cell-based
Outline: as §1

[31] = tested on: H-MEC-1; test: Inhibition of cells growth by colorimetric assay (SRB), H-MEC-1; format: cell-based; settings: for CC50: Homo sapiens
Outline: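 Absorbance at 490 nm of sulphorhodamine B bound by TCA-fixed cells gives the growth readout after 48 h continuous exposure to test samples (10 to 10^−8 μg/ml). Cells were seeded at 5×10^3 per well in RPMI 1640/10% FBS and allowed 18 h to attach first.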

[32] = Homo sapiens, SK-MEL-28, 48 h, MEL-28, 48 hours exposure, SRB
[33] = Homo sapiens, A549, 48 h, A549, 48 hours exposure, SRB
[34] = Homo sapiens, A549, 48 h, read-out: LC50, A549, 48 hours exposure, SRB
[35] = Homo sapiens, HT-29, 48 h, HT29, 48 hours exposure, SRB
[36] = Homo sapiens, HT-29, 48 h, read-out: LC50, HT29, 48 hours exposure, SRB
[37] = Homo sapiens, DU-145, 48 h, DU145, 48 hours exposure, SRB
[38] = Homo sapiens, 48 h, 48 hours exposure, SRB
[39] = Homo sapiens, PANC-1, 48 h, PANC-1, 48 hours exposure, SRB
[40] = Homo sapiens, LNCaP, 48 h, 48 hours exposure, SRB
[41] = H-MEC-1, 48 hours exposure, SRB

T1 sequence (P08684 whole entry): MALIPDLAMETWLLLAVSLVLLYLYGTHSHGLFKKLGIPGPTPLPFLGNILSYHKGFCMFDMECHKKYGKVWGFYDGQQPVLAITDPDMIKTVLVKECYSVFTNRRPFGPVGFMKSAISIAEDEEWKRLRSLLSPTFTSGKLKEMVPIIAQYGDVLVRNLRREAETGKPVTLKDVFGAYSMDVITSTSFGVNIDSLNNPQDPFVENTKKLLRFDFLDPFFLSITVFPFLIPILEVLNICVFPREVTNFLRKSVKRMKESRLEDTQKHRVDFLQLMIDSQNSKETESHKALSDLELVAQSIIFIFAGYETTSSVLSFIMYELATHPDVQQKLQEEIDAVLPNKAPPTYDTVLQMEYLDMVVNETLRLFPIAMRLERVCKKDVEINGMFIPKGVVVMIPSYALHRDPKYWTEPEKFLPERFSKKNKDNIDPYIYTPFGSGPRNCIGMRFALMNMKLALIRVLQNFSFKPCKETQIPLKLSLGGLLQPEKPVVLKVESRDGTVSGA
Chain of CYP2D6 (P10635 whole entry): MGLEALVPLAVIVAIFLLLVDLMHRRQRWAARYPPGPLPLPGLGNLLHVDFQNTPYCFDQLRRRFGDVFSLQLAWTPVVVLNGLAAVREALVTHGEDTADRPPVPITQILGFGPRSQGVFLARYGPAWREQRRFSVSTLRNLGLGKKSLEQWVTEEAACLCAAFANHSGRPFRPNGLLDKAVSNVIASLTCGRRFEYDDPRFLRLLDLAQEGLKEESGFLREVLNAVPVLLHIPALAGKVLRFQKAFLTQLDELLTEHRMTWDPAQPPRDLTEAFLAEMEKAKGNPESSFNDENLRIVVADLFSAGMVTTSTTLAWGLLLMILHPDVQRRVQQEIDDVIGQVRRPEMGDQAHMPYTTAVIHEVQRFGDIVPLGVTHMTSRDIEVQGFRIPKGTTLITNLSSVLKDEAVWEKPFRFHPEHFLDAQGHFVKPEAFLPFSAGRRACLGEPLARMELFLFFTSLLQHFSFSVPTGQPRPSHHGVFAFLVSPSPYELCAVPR

## COc1ccc2c3c([nH]c2c1)[C@@]1(CS[C@@H]2c4c(OC(C)=O)c(C)c5c(c4[C@H](COCC1=O)N1C2[C@H]2c4c(cc(C)c(OC)c4O)C[C@@H]([C@@H]1O)N2C)OCO5)NCC3 (some centres unmarked) [Compound 34]
[1]
  logD at 60 min: > 5
[2]
  inhibition at 450 min, 10 µM: 28%
[3]
  Myelo: 1.15E−05
[4]
  inhibition at 30 min, 10 µM: 80%
[5]
  Heart: 4.96E−07
[6]
  Human Liver S9 Metabolic Stability (% remaining): 24 % remaining
[7]
  Skeletal: 1.48E−08
[8]
  Cell Viability (% inhibition): 45 % inhibition
[9]
  Kidney: 2.74E−07
[10]; A498, 48 h, read-out: LC50
  CC50: 63.7 nM
[10]; A498, 48 hours exposure, SRB
  GI50: 3.82 nM
  IC (TGI): 12.7 nM
[11]; 48 h, read-out: LC50
  CC50: 127 nM
[11]; 48 h, read-out: TGI
  IC (TGI): 10.2 nM
[11]; MB231, 48 hours exposure, SRB
  GI50: 3.82 nM
[12]; [32]
  GI50: 3.82 nM
  IC (TGI): 12.7 nM
[12]; Homo sapiens, SK-MEL-28, 48 h, read-out: LC50, MEL-28, 48 hours exposure, SRB
  CC50: 63.7 nM
[13]; SW-620, 48 h
  GI50: 10.2 nM
[13]; SW-620, 48 h, read-out: LC50
  CC50: 102 nM
[13]; SW-620, 48 hours exposure, SRB
  IC (TGI): 38.2 nM
[14]; [33]
  GI50: 5.1 nM
  IC (TGI): 25.5 nM
[14]; [34]
  CC50: 89.2 nM
[15]; 48 h, read-out: LC50
  CC50: 127 nM
[15]; MCF, 48 hours exposure, SRB
  GI50: 5.1 nM
[15]; MCF, 48 hours exposure, SRB, read-out: TGI
  IC (TGI): 25.5 nM
[16]; [35]
  GI50: 7.64 nM
  IC (TGI): 2.54 nM
[16]; [36]
  CC50: 11.5 nM
[17]; [37]
  GI50: 2.55 nM
  IC (TGI): 3.82 nM
[17]; Homo sapiens, DU-145, 48 h, read-out: LC50, DU145, 48 hours exposure, SRB
  CC50: 10.2 nM
[18]
  Liver: 2.55E−06
[19]
  Papp A→B at 2 h, 50 μM: 5 ×10⁻⁶ cm/s
[20]
  solubility: 17.6 µM (≈ 14.1 µg/mL)

## COc1c(C)cc2c(c1O)[C@@H]1C3[C@@H]4SC[C@]5(NC(C)Cc6c5[nH]c5ccc(F)cc65)C(=O)COC[C@@H](c5c6c(c(C)c(OC(C)=O)c54)OCO6)N3[C@@H](O)[C@H](C2)N1C (some centres unmarked) [Compound 41]
other
  Solubility Dulbecco's PBS pH 7.4: <1 est μM
[1]
  logD at 60 min: > 4.5
[2]
  inhibition at 450 min, 10 µM: 16%
[3]
  Myelo: 1.39E−07
[5]
  Heart: 3.49E−08
[6]
  Human Liver S9 Metabolic Stability (% remaining): 7 % remaining
[7]
  Skeletal: 2.39E−07
[8]
  Cell Viability (% inhibition): 16 % inhibition
[21]; Homo sapiens, SK-OV-3, 48 h, SK-OV3, 48 hours exposure, SRB
  GI50: 3.85 nM
[21]; Homo sapiens, SK-OV-3, 48 h, read-out: LC50, SK-OV3, 48 hours exposure, SRB
  CC50: 12700 nM
[21]; SK-OV3, 48 hours exposure, SRB
  TGI: 9.82E−09 Molar
[9]
  Kidney: 1.89E−08
[22]
  CYP3A4 (% inhibition): 22 % inhibition
[23]; K562, 48 hours exposure, SRB
  GI50: 0.11 nM
  TGI: 2.19E−09 Molar
  CC50: 5.57 nM
[24]; SK-BR3, 48 hours exposure, SRB
  GI50: 2.33 nM
  TGI: 6.86E−09 Molar
  CC50: 36.3 nM
[25]; [38]
  GI50: 1.94 nM
  IC (TGI): 4.14 nM
[25]; Homo sapiens, 48 h, read-out: LC50, IGROV, 48 hours exposure, SRB
  CC50: 8.86 nM
[12]; MEL-28, 48 hours exposure, SRB
  GI50: 6.72 nM
  TGI: 2.66E−08 Molar
[12]; read-out: LC50, MEL-28, 48 hours exposure, SRB
  CC50: 102 nM
[26]; [39]
  GI50: 10.8 nM
  IC (TGI): 48.9 nM
[26]; PANC-1, 48 hours exposure, SRB
  CC50: 506 nM
[14]; [33]
  GI50: 19.8 nM
  IC (TGI): 46.8 nM
[14]; [34]
  CC50: 110 nM
[27]; 48 hours exposure, SRB
  GI50: 3.14 nM
  TGI: 2.00E−08 Molar
  CC50: 3860 nM
[28]; [38]
  GI50: 30.5 nM
[28]; Homo sapiens, 48 h, read-out: LC50, LOVO-DOX, 48 hours exposure, SRB
  CC50: 12700 nM
[28]; 48 hours exposure, SRB
  TGI: 9.99E−08 Molar
[29]; Homo sapiens, LoVo, 48 h, 48 hours exposure, SRB
  IC (TGI): 24.4 nM
[29]; LOVO, 48 hours exposure, SRB
  GI50: 4.42 nM
  CC50: 410 nM
[16]; HT29, 48 hours exposure, SRB
  GI50: 5.66 nM
  TGI: 6.07E−08 Molar
[16]; [36]
  CC50: 12700 nM
[30]; [40]
  GI50: 2.62 nM
  IC (TGI): 5.17 nM
[30]; Homo sapiens, LNCaP, 48 h, read-out: LC50, LNCAP, 48 hours exposure, SRB
  CC50: 10.2 nM
[17]; [37]
  GI50: 3.49 nM
  IC (TGI): 8.37 nM
[17]; read-out: LC50, DU145, 48 hours exposure, SRB
  CC50: 9900 nM
[18]
  Liver: 6.30E−08
[31]; [41]
  GI50: 4.68 nM
  TGI: 4.08E−08 Molar
[31]; HMEC-1, 48 h, read-out: LC50, H-MEC-1, 48 hours exposure, SRB
  CC50: 12700 nM

## COc1c(C)cc2c(c1O)[C@@H]1C3[C@@H]4SC[C@]5(NC(C)Cc6c5[nH]c5ccccc65)C(=O)COC[C@@H](c5c6c(c(C)c(OC(C)=O)c54)OCO6)N3[C@@H](O)[C@H](C2)N1C (some centres unmarked) [Compound 43]
other
  Solubility Dulbecco's PBS pH 7.4: 5.85 μM
[1]
  logD at 60 min: > 4.5
[3]
  Myelo: 6.23E−08
[5]
  Heart: 9.42E−08
[6]
  Human Liver S9 Metabolic Stability (% remaining): 3 % remaining
[7]
  Skeletal: 1.60E−07
[21]; SK-OV3
  GI50: 3.39 nM
  TGI: 7.17E−09
[21]; read-out: LC50, SK-OV3
  CC50: 13 nM
[9]
  Kidney: 4.38E−08
[22]
  CYP3A4 (% inhibition): 15 % inhibition
[23]; Homo sapiens, K562, K562
  GI50: 2.51 nM
[23]; K562
  TGI: 4.88E−09
  CC50: 9.49 nM
[24]; SK-BR3
  GI50: 3.77 nM
  TGI: 8.65E−09
  CC50: 41.1 nM
[25]
  TGI: 5.20E−09
[25]; Homo sapiens
  GI50: 2.73 nM
[25]; read-out: LC50
  CC50: 9.88 nM
[12]; MEL-28
  GI50: 308 nM
  TGI: 5.81E−07
[12]; read-out: LC50, MEL-28
  CC50: 1090 nM
[26]; PANC-1
  GI50: 5.28 nM
  TGI: 1.15E−08
  CC50: 39 nM
[14]; A549
  TGI: 1.08E−08
  GI50: 5.12 nM
[14]; read-out: LC50, A549
  CC50: 32.8 nM
[27]
  GI50: 9.1 nM
  TGI: 2.35E−08
  CC50: 13000 nM
[28]; Homo sapiens, read-out: LC50, LOVO-DOX
  CC50: 13000 nM
[28]
  GI50: 39.8 nM
  TGI: 1.06E−07
[29]; LOVO
  GI50: 3.5 nM
  TGI: 8.32E−09
  CC50: 38.9 nM
[16]; HT29
  TGI: 1.04E−07
[16]; Homo sapiens, HT-29, HT29
  GI50: 46.4 nM
[16]; Homo sapiens, HT-29, read-out: LC50, HT29
  CC50: 13000 nM
[30]; LNCAP
  GI50: 2.02 nM
  TGI: 3.76E−09
[30]; read-out: LC50, LNCAP
  CC50: 7 nM
[17]; DU145
  TGI: 9.04E−09
[17]; Homo sapiens, DU-145, DU145
  GI50: 4.76 nM
[17]; read-out: LC50, DU145
  CC50: 13 nM
[18]
  Liver: 7.57E−08
[31]; H-MEC-1
  GI50: 11.8 nM
  TGI: 1.77E−07
[31]; HMEC-1, read-out: LC50, H-MEC-1
  CC50: 13000 nM
